This note sets out measurements from patent US11225480B2, “Malic enzyme inhibitors” (SUN PHARMA ADVANCED RESEARCH COMPANY LTD, priority 2019, dated 2022).

What all share (type): biochemical
The target in one experiment is T1, human ME1 enzyme (Homo sapiens, UniProt P48163).
T1 sequence (P48163 1-572): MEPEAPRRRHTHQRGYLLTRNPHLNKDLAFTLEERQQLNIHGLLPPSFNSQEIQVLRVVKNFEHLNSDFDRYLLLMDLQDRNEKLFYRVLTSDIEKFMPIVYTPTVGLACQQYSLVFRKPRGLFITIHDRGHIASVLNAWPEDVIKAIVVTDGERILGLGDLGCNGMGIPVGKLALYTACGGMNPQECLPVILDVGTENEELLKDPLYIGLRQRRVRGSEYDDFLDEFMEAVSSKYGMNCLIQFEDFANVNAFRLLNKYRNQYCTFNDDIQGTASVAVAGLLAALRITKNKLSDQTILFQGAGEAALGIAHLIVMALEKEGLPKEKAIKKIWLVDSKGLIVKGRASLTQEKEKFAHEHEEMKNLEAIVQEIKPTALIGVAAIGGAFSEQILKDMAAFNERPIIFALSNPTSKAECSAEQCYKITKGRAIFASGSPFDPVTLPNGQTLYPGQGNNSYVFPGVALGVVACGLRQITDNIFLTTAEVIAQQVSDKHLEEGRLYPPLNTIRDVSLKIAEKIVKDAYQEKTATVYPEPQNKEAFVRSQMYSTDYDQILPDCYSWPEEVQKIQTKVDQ
Description: ME1 inhibition assay (diaphorase/resazurin coupled fluorescence). Particulars: 10 μM compound concentration; read-out: Malic Enzyme 1 % inhibition (10 μM). In outline:
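Compounds at 10 μM preincubated 15 min in 50 mM Tris-HCl pH 7.5, 10 mM MnCl2, 2 mM L-malate, 10 μM resazurin, 0.01 mg/ml diaphorase, then human ME1 added for 5 min; reaction started with NADP+ and run 2 h at room temperature. Resorufin fluorescence (ex 540/em 600 nm) normalized to enzyme-only (100%) and no-enzyme (0%) controls.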
(In general: Alamar Blue is a resazurin reagent that responds to reducing activity.)

The target of the next experiment is T2, human ME3 enzyme (Homo sapiens, UniProt Q16798).
T2 sequence (Q16798 1-604): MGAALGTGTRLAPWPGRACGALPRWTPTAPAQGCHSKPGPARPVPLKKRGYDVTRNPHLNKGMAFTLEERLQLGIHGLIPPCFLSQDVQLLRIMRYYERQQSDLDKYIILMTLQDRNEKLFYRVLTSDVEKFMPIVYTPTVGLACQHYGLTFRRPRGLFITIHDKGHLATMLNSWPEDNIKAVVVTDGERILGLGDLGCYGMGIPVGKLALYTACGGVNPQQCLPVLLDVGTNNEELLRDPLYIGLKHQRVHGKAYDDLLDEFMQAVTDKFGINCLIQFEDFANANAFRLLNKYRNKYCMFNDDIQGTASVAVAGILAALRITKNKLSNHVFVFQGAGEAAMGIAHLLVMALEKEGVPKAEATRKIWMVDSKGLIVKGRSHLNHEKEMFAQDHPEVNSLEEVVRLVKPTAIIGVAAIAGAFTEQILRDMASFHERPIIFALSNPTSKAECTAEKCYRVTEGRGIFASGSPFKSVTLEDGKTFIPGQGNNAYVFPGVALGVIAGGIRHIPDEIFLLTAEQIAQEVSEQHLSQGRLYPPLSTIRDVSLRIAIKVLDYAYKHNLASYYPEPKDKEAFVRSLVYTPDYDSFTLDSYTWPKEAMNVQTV
Description: ME3 inhibition assay (diaphorase/resazurin coupled fluorescence). The following applies: 10 μM compound concentration; read-out: Malic Enzyme 3 % inhibition (10 μM). In outline: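 Coupled read-out: NADPH made by human ME3 (20 nM stock) drives diaphorase conversion of resazurin (50 μM) to resorufin; buffer 50 mM Tris-HCl pH 7.5, 10 mM MnCl2, 3 mM L-malate.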

Another experiment deals with human ME2 enzyme (Homo sapiens, UniProt P23368). Description: ME2 inhibition assay (diaphorase/resazurin coupled fluorescence). The following applies: 10 μM compound concentration; read-out: Malic Enzyme 2 % inhibition (10 μM). In outline: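 Human ME2 (10 μL of 60 nM) was preincubated 5 min at room temperature with compound (10 μM) in 50 mM Tris-HCl pH 7.5, 10 mM MnCl2, 7 mM L-malate, 50 μM resazurin and 0.025 mg/ml diaphorase. The reaction was started with 10 μL of 2 mM β-NAD+ and run 2 hours at room temperature. Resorufin fluorescence (ex 540/em 600 nm) was normalized to enzyme-only (100%) and no-enzyme (0%) controls as % activity.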

Where a name gives a salt, the structure may show the parent alone. Bounds are passed on as bounds.

Chain of human ME2 enzyme (P23368 19-584): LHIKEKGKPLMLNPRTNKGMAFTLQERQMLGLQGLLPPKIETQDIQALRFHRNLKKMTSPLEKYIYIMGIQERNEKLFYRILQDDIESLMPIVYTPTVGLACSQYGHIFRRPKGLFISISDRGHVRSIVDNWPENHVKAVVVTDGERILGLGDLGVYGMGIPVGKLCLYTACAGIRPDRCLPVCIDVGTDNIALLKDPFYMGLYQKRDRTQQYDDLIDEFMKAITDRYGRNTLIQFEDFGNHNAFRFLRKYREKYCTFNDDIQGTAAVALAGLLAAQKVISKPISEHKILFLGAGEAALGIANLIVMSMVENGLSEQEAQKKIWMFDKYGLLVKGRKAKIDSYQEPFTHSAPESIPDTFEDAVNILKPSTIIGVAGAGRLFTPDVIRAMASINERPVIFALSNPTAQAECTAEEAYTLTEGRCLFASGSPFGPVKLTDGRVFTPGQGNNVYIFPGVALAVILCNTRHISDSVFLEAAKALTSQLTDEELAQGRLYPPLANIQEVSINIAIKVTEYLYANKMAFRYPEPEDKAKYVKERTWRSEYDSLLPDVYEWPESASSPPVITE

In the case of `O=C(Cc1c[nH]c2cc(F)c(F)cc12)N1CCN(c2ccc(O)cn2)CC1` [I.160, 2-(5,6-Difluoro-1H-indol-3-yl)-1-[4-(5-hydroxy-pyridin-2-yl)-piperazin-1-yl]-ethanone], the inhibition at 10 µM at human ME1 enzyme, at human ME3 enzyme and on human ME2 enzyme was over 90% each time.
Take `CC(C)(CC(=O)N1CCN(c2ccc(O)cn2)CC1)c1ccc(F)cc1` [I.161, 3-(4-Fluoro-phenyl)-1-[4-(5-hydroxy-pyridin-2-yl)-piperazin-1-yl]-3-methyl-butan-1-one]: the inhibition at 10 µM at human ME1 enzyme, on human ME3 enzyme and at human ME2 enzyme was over 90% each time.
As for `CC(C)(Sc1ccccc1Br)C(=O)N1CCN(c2ccc(O)cn2)CC1` [I.162, 2-(2-Bromo-phenyl-sulfanyl)-1-[4-(5-hydroxy-pyridin-2-yl)-piperazin-1-yl]-2-methyl-propan-1-one], the inhibition at 10 µM on human ME1 enzyme, on human ME3 enzyme and at human ME2 enzyme was over 90% throughout.
For the compound `O=C(CSc1ccc(F)cc1)N1CCN(c2ccc(O)cn2)CC1` [I.163, 2-(4-Fluoro-phenyl-sulfanyl)-1-[4-(5-hydroxy-pyridin-2-yl)-piperazin-1-yl]-ethanone], the inhibition at 10 µM on human ME1 enzyme, on human ME3 enzyme and on human ME2 enzyme was over 90% each time.
Consider `O=C(COc1ccc(F)cc1)N1CCN(c2ccc(O)cn2)CC1` [I.164, 2-(4-Fluoro-phenoxy)-1-[4-(5-hydroxy-pyridin-2-yl)-piperazin-1-yl]-ethanone], for which the inhibition at 10 µM on human ME1 enzyme, at human ME3 enzyme and on human ME2 enzyme was over 90% in each case.
As for `Cn1cc(CC(=O)N2CCN(c3ccc(O)cn3)CC2)c2cc(F)ccc21` [I.165, 2-(5-Fluoro-1-methyl-indol-3-yl)-1-[4-(5-hydroxy-pyridin-2-yl)-piperazin-1-yl]-ethanone], the inhibition at 10 µM at human ME1 enzyme, on human ME3 enzyme and at human ME2 enzyme was over 90% in each case.
On to `Cc1[nH]c2ccc(F)cc2c1CC(=O)N1CCN(c2ccc(O)cn2)CC1` [I.166, 2-(5-Fluoro-2-methyl-1H-indol-3-yl)-1-[4-(5-hydroxy-pyridin-2-yl)-piperazin-1-yl]-ethanone], for which the inhibition at 10 µM at human ME1 enzyme, on human ME3 enzyme and at human ME2 enzyme was over 90% in each case.
Consider `O=C(Cc1c[nH]c2c(F)cc(F)cc12)N1CCN(c2ccc(O)cn2)CC1` [I.167, 2-(5,7-Difluoro-1H-indol-3-yl)-1-[4-(5-hydroxy-pyridin-2-yl)-piperazin-1-yl]-ethanone], for which the inhibition at 10 µM on human ME1 enzyme, at human ME3 enzyme and at human ME2 enzyme was over 90% in each case.
For `O=C(C(=O)N1CCN(c2ccc(O)cn2)CC1)c1c[nH]c2ccc(F)cc12` [I.168, 1-(5-Fluoro-1H-indol-3-yl)-2-[4-(5-hydroxy-pyridin-2-yl)-piperazin-1-yl]-ethane-1,2-dione], the inhibition at 10 µM at human ME1 enzyme, at human ME3 enzyme and on human ME2 enzyme was over 90% each time.
In the case of `CC(C)(C(=O)N1CCN(c2ccc(O)cn2)CC1)c1c[nH]c2ccc(F)cc12` [I.169, 2-(5-Fluoro-1H-indol-3-yl)-1-[4-(5-hydroxy-pyridin-2-yl)-piperazin-1-yl]-2-methyl-propan-1-one], the inhibition at 10 µM at human ME1 enzyme, at human ME3 enzyme and at human ME2 enzyme was over 90% each time.
For `O=C(CCc1cc(F)c(F)c(F)c1)N1CCN(c2ccc(O)cn2)CC1` [I.170, 1-[4-(5-Hydroxy-pyridin-2-yl)-piperazin-1-yl]-3-(3,4,5-trifluoro-phenyl)-propan-1-one], the inhibition at 10 µM on human ME1 enzyme, on human ME3 enzyme and on human ME2 enzyme was over 90% throughout.
`O=C(Cc1cc(F)c(F)c(F)c1)N1CCN(c2ccc(O)cc2)CC1` [I.171, 1-[4-(4-Hydroxy-phenyl)-piperazin-1-yl]-2-(3,4,5-trifluoro-phenyl)-ethanone]: the inhibition at 10 µM on human ME1 enzyme, at human ME3 enzyme and on human ME2 enzyme was over 90% throughout.
For the compound `C=CC(=O)NC(CC(=O)N1CCN(c2ccc(O)cn2)CC1)c1ccccc1` (stereo not drawn) [I.172, N-{3-[4-(5-Hydroxy-pyridin-2-yl)-piperazin-1-yl]-3-oxo-1-phenyl-propyl}-acrylamide], the inhibition at 10 µM at human ME1 enzyme was 50 to 69%; at human ME3 enzyme, over 90%; at human ME2 enzyme it was over 90%.
As for `CC(C)(CC(=O)N1CCN(c2ccc(O)cc2)CC1)c1ccccc1` [I.173, 1-[4-(4-Hydroxy-phenyl)-piperazin-1-yl]-3-methyl-3-phenyl-butan-1-one hydrochloride salt], the inhibition at 10 µM on human ME1 enzyme is 70 to 89%; at human ME3 enzyme, over 90%; on human ME2 enzyme, over 90%.
Turning to `O=C(Cc1c[nH]c2cc(Cl)c(Cl)cc12)N1CCN(c2ccc(O)cn2)CC1` [I.174, 2-(5,6-Dichloro-1H-indol-3-yl)-1-[4-(5-hydroxy-pyridin-2-yl)-piperazin-1-yl]-ethanone], the inhibition at 10 µM on human ME1 enzyme, at human ME3 enzyme and on human ME2 enzyme was over 90% throughout.
For `Cc1[nH]c2ccc(Cl)cc2c1CC(=O)N1CCN(c2ccc(O)cn2)CC1` [I.175, 2-(5-Chloro-2-methyl-1H-indol-3-yl)-1-[4-(5-hydroxy-pyridin-2-yl)-piperazin-1-yl]-ethanone], the inhibition at 10 µM at human ME1 enzyme, on human ME3 enzyme and on human ME2 enzyme was over 90% each time.
Regarding `Cc1[nH]c2cc(Cl)c(Cl)cc2c1CC(=O)N1CCN(c2ccc(O)cn2)CC1` [I.176, 2-(5,6-Dichloro-2-methyl-1H-indol-3-yl)-1-[4-(5-hydroxy-pyridin-2-yl)-piperazin-1-yl]-ethanone], the inhibition at 10 µM at human ME1 enzyme, at human ME3 enzyme and at human ME2 enzyme was over 90% throughout.

One may read the inhibition as the relative decrease from the control value, in per cent.
